System: apple polyphenol oxidase
Assay: Polyphenol oxidase assay, color formation from catechol at 420 nm
Format: biochemical, Red Delicious apples
Details: for Average % Inhibition of apple PPO: average ± standard deviation, n = 6; for apple PPO activity: n=3, control 0.24±0.02
Procedure: Acetone powder containing apple polyphenol oxidase was prepared from Red Delicious apples. Cored and peeled apple pieces (200 g) were homogenized in a precooled blender along with 400 mL cold acetone (−20° C.) for 1 min and then filtered through Whatman No. 1 filter paper. The residue was extracted 3 times with 200 mL cold acetone and the resulting white powder was dried at room temperature, vacuum sealed in commercial plastic bags, and stored at −20° C. until needed. Crude PPO enzyme from the acetone powder was reconstituted in 0.1 M KH2PO4/Na2HPO4, pH 7.2 Containing 1% Triton X-100 (Bio-Rad Laboratories, Hercules, Calif.) using modified procedures of Murata et al. “Relationship between apple ripening and browning—changes in polyphenol content and polyphenol oxidase”, Journal of Agricultural and Food Chemistry 1995, 43 (5), 1115-21 and Yemenicioglu et al. “Heat inactivation kinetics of apple polyphenoloxidase and activation of its latent form”, Journal of Food Science 1997, 62 (3): 508-10. Acetone powder (1 g) was added to 50 mL of refrigerated 0.1 M KH2PO4/Na2HPO4, pH 7.2 buffer containing 1% TritonX-100 (Bio-Rad Laboratories, Hercules, Calif.) and the mixture was stirred for 20 min at 4° C. The suspension was centrifuged at 1200×g for 30 min, then filtered through glass wool and stored at −20° C. where it remained stable for at least 1 month.
A standard reaction mixture for evaluation of browning inhibition where the hypotaurine comprising solution was a mussel extract, consisted of 2.45 mL of 0.1 sodium acetate/acetic acid buffer, pH 5.5, 0.2 ml mussel extract (or additional pH 5.5 buffer for a control run for comparison), 0.3 mL of 0.5 M catechol (Sigma, St. Louis, Mo.) and 0.05 mL of enzyme extract. The percent inhibition was calculated with the following formula: I=100*(A-B)/A, where A and B are the greatest initial linear rate of the control and the test system respectively.
Polyphenol oxidase activity was measured by monitoring the increase in color (absorbance at 420 nm) in a reaction mixture with catechol as a substrate. […] From the data in FIG. 1, the inhibition of polyphenol oxidase by 90 ppm of hypotaurine was calculated to be 97 percent with a 30 fold decrease in the rate of browning. The mussel extract was employed in a similar manner and inhibition was calculated to be 93 percent with a 14 fold decrease in the rate of browning. […]

[1] = 90 ppm of hypotaurine, catechol substrate, FIG. 1

| Structure (SMILES) | Average % Inhibition of apple PPO (67.5 μM) [%] | Average % Inhibition of apple PPO (250 μM) [%] | Average % Inhibition of apple PPO (500 μM) [%] | Average % Inhibition of apple PPO (500 μM, listed as hypotaurine) [%] | fold decrease in the rate of browning [1] [fold] | inhibition of polyphenol oxidase [1] [%] | Average % Inhibition of apple PPO (500 μM, listed as methane sulfinic acid) [%] | apple PPO activity (67.5 μM) | apple PPO activity (250 μM) | apple PPO activity (500 μM) | inhibition of apple PPO (in words) (67.5 to 500 μM) |
| --- | --- | --- | --- | --- | --- | --- | --- | --- | --- | --- | --- |
| O=S(O)c1ccccc1 [Benzene Sulfinic Acid, benzene sulfinic acid] | 20.9 ± 16.15 | 98.5 ± 1.28 | 100 | – | – | – | – | – | – | – | – |
| NCCS(=O)O [Hypotaurine, 2-aminoethane sulfinic acid] | 39.1 ± 4.48 | 80.0 ± 14.90 | 89.8 ± 7.65 | 89 | 30 | 97 | – | – | – | – | – |
| CS(=O)O [Methane Sulfinic Acid, methane sulfinic acid] | 33.7 ± 0.69 | 96.8 ± 0.69 | 99.8 ± 0.11 | – | – | – | 100 | – | – | – | – |
| NCCS(=O)(=O)O [Taurine, reference compound] | – | – | – | – | – | – | – | 0.23±0.04 ΔA420 nm/min | 0.25±0.01 ΔA420 nm/min | 0.23±0.01 ΔA420 nm/min | did not inhibit |

From patent US20130183418A1, “METHOD OF INHIBITION OF ENZYMATIC BROWNING IN FOOD USING A SULFINIC ACID COMPOUND” (UNIVERSITY OF FLORIDA RESEARCH FOUNDATION, INC., priority 2008, published 2013)
